The values that follow come from patent publication US6534048B1, “Topical clonidine preparation” (Curatek Pharmaceuticals Holding, Inc., priority 1999, dated 2003).

Data set [1] relates to patients with postherpetic neuralgia. Conditions: cited from earlier work.

On to `Clc1cccc(Cl)c1NC1=NCCN1` [clonidine, N-(2,6-dichlorophenyl)-4,5-dihydro-1H-imidazol-2-amine], for which the side effects result (eight volunteers, 3 mg or 6 mg per day for 14 consecutive days) is “no side effects were observed”; the side effects result in data set [1] (single oral 0.2 mg, at the time of peak clonidine levels) was “troublesome levels of sedation and dizziness”. Besides, the mean plasma concentrations entry (topical daily doses of 3 mg and 6 mg clonidine) was “not more than 0.2 nanograms/ml”. Besides, the pain relief result in data set [1] (single oral doses of 0.2 mg, 40 patients) is “greater than that produced by doses of placebo or 120 mg codeine”.
